In ChEMBL document CHEMBL5705893, “Targeting the mitotic checkpoint for cancer therapy with NMS-P715, an inhibitor of MPS1 kinase” (Cancer Res, 2010):
Activity calls are given as the source filed them. The rule behind the calls is not given here.

What was measured:
[1] = tested on: HeLa; test: Induction of mitotic arrest in human nocodazole-arrested HeLa cells assessed as delocalization of BUB3 at 1 micromol/L in presence of MG132; type: functional, cell-based; conditions: dose 1.0 µmol/L
[2] = tested on: UO-31; test: Antiproliferative activity against human UO-31 cells assessed as inhibition of cell growth incubated for 72 hrs by celltiter-glo assay; type: functional, cell-based; conditions: UO-31, 72 h
[3] = tested on: TK-10; test: Antiproliferative activity against human TK-10 cells assessed as inhibition of cell growth incubated for 72 hrs by celltiter-glo assay; type: functional, cell-based; conditions: TK-10, 72 h
[4] = target: Tyrosine-protein kinase ZAP-70 (Homo sapiens, UniProt P43403); test: Inhibition of recombinant ZAP70 (unknown origin)
[5] = tested on: A2780; test: Cell cycle arrest in human A2780 cells assessed as accumulation of cells at G1 phase at 0.2 to 1 micromol/L incubated for 24 hrs by FACS/PI staining based flow cytometric analysis; type: functional; conditions: dose 0.2-1 µmol/L
[6] = tested on: SKM-1; test: Antiproliferative activity against human SKM-1 cells assessed as inhibition of cell growth incubated for 72 hrs by celltiter-glo assay; type: functional, cell-based; conditions: SKM-1, 72 h
[7] = tested on: T98G; test: Antiproliferative activity against human T98G cells assessed as inhibition of cell growth incubated for 72 hrs by celltiter-glo assay; type: functional, cell-based
[8] = Antiproliferative activity against human PL21 cells assessed as inhibition of cell growth incubated for 72 hrs by celltiter-glo assay; type: functional, cell-based; conditions: PL-21, 72 h
[9] = target: Fibroblast growth factor receptor 1 (Homo sapiens, UniProt P11362); test: Inhibition of recombinant FGFR1 (unknown origin)
Fibroblast growth factor receptor 1, sequence (P11362 whole entry): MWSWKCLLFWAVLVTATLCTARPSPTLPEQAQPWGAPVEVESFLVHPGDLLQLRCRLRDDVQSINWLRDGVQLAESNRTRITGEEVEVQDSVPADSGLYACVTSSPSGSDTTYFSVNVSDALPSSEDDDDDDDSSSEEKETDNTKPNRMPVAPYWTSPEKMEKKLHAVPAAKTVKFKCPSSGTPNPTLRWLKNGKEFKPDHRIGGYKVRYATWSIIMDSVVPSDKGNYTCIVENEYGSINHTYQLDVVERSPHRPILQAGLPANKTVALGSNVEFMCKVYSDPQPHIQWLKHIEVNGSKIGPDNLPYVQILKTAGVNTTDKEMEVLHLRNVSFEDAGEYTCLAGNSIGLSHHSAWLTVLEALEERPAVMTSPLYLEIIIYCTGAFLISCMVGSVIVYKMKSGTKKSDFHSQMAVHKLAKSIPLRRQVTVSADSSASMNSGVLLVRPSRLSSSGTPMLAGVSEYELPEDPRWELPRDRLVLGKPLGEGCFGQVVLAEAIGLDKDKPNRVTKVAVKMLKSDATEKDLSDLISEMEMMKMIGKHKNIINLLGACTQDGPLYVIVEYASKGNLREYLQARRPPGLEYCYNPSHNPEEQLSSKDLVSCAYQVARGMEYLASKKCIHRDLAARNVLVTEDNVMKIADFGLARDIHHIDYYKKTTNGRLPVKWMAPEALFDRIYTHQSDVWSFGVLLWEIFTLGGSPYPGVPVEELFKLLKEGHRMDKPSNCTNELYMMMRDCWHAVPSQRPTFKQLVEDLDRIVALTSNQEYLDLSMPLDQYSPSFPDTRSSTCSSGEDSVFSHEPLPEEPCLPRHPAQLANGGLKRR

[10] = tested on: A498; test: Antiproliferative activity against human A498 cells assessed as inhibition of cell growth incubated for 72 hrs by celltiter-glo assay; type: functional, cell-based; conditions: A498, 72 h
[11] = tested on: RO82-W-1; test: Antiproliferative activity against human RO82-W-1 cells assessed as inhibition of cell growth incubated for 72 hrs by celltiter-glo assay; type: functional, cell-based; conditions: RO82-W-1, 72 h
[12] = Antiproliferative activity against human RPMI 8226/ADR cells assessed as inhibition of cell growth incubated for 72 hrs by celltiter-glo assay; type: functional, cell-based
[13] = tested on: NCI-H322M; test: Antiproliferative activity against human NCI-H322M cells assessed as inhibition of cell growth incubated for 72 hrs by celltiter-glo assay; type: functional, cell-based
[14] = target: Serine/threonine-protein kinase PAK 4 (Homo sapiens, UniProt O96013); test: Inhibition of recombinant PAK4 (unknown origin)
[15] = target: Serine/threonine-protein kinase pim-2 (Homo sapiens, UniProt Q9P1W9); test: Inhibition of recombinant PIM2 (unknown origin)
Serine/threonine-protein kinase pim-2, sequence (Q9P1W9 whole entry): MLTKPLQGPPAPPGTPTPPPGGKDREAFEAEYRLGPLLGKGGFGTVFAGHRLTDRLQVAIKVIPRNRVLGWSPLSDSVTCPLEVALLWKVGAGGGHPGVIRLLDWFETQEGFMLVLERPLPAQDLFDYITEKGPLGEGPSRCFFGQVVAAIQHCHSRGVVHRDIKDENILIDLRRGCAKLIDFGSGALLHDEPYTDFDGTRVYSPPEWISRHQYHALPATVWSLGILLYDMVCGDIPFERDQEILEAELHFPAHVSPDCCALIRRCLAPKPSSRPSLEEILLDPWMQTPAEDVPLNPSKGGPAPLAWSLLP

[16] = tested on: NCI-H1770; test: Antiproliferative activity against human NCI-H1770 cells assessed as inhibition of cell growth incubated for 72 hrs by celltiter-glo assay; type: functional, cell-based; conditions: NCI-H1770, 72 h
[17] = tested on: HeLa; test: Induction of mitotic arrest in human nocodazole-arrested HeLa cells assessed as delocalization of MAD1 in presence of MG132; type: functional, cell-based
[18] = tested on: SK-MEL-5; test: Antiproliferative activity against human SK-MEL-5 cells assessed as inhibition of cell growth incubated for 72 hrs by celltiter-glo assay; type: functional, cell-based; conditions: SK-MEL-5, 72 h
[19] = tested on: UACC-62; test: Antiproliferative activity against human UACC-62 cells assessed as inhibition of cell growth incubated for 72 hrs by celltiter-glo assay; type: functional, cell-based; conditions: UACC-62, 72 h
[20] = target: Focal adhesion kinase 1 (Homo sapiens, UniProt Q05397); test: Inhibition of recombinant FAK (unknown origin)
[21] = Oral bioavailability in Athymic nu-nu mouse at 100 mg/kg measured upto 24 hrs by LC-MS/MS analysis; type: ADME, organism-based; conditions: in vivo
[22] = target: Inhibitor of nuclear factor kappa-B kinase subunit beta (Homo sapiens, UniProt O14920); test: Inhibition of recombinant IKK2 (unknown origin)
[23] = Half life in Athymic nu-nu mouse at 10 mg/kg, po measured upto 24 hrs by LC-MS/MS analysis; type: ADME, organism-based; conditions: in vivo
[24] = tested on: SK-MEL-28; test: Antiproliferative activity against human SK-MEL-28 cells assessed as inhibition of cell growth incubated for 72 hrs by celltiter-glo assay; type: functional, cell-based; conditions: SK-MEL-28, 72 h
[25] = target: Tyrosine-protein kinase SYK (Homo sapiens, UniProt P43405)
Description: Inhibition of recombinant SYK (unknown origin)

[26] = tested on: HOP-62; test: Antiproliferative activity against human HOP-62 cells assessed as inhibition of cell growth incubated for 72 hrs by celltiter-glo assay; type: functional, cell-based; conditions: HOP-62, 72 h
[27] = Inhibition of recombinant AUR2 (unknown origin); parameters: species or system Homo sapiens
[28] = AUC in Athymic nu-nu mouse at 10 mg/kg, iv measured upto 24 hrs by LC-MS/MS analysis; type: ADME, organism-based; conditions: in vivo
[29] = tested on: MCF7; test: Antiproliferative activity against human MCF7 cells assessed as inhibition of cell growth incubated for 72 hrs by celltiter-glo assay; type: functional, cell-based; conditions: MCF7, 72 h
[30] = tested on: LNCaP; test: Antiproliferative activity against human LNCaP cells assessed as inhibition of cell growth incubated for 72 hrs by celltiter-glo assay; type: functional, cell-based
[31] = tested on: M14; test: Antiproliferative activity against human M14 cells assessed as inhibition of cell growth incubated for 72 hrs by celltiter-glo assay; type: functional, cell-based; conditions: M14, 72 h
[32] = tested on: CAPAN-1; test: Antiproliferative activity against human CAPAN-1 cells assessed as inhibition of cell growth incubated for 72 hrs by celltiter-glo assay; type: functional, cell-based; conditions: CAPAN-1, 72 h
[33] = target: Glycogen synthase kinase-3 beta (Homo sapiens, UniProt P49841); test: Inhibition of recombinant GSK3beta (unknown origin)
[34] = target: Insulin receptor (Homo sapiens, UniProt P06213); test: Inhibition of recombinant IR (unknown origin)
Insulin receptor, sequence (P06213 28-758 limits assumed): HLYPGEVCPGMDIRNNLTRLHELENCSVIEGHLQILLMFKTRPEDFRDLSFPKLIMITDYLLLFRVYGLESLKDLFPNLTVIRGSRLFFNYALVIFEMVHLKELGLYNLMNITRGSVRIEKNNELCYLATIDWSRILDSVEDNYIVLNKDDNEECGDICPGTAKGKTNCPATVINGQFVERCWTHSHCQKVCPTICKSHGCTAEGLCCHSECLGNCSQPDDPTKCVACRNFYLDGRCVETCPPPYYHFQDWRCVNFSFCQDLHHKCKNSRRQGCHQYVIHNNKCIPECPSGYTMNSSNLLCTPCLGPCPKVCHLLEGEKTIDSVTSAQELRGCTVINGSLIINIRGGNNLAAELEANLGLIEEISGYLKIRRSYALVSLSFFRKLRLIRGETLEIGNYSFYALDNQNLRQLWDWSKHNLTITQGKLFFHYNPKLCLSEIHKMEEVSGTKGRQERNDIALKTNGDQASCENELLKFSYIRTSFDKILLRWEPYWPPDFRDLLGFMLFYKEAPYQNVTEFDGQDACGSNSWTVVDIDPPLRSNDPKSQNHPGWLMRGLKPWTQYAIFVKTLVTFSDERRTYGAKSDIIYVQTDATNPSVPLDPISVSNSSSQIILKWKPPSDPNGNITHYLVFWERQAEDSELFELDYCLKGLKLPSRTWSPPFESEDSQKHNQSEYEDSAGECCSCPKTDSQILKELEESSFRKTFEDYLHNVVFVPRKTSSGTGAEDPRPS
Insulin receptor, sequence (P06213 763-1382 limits assumed): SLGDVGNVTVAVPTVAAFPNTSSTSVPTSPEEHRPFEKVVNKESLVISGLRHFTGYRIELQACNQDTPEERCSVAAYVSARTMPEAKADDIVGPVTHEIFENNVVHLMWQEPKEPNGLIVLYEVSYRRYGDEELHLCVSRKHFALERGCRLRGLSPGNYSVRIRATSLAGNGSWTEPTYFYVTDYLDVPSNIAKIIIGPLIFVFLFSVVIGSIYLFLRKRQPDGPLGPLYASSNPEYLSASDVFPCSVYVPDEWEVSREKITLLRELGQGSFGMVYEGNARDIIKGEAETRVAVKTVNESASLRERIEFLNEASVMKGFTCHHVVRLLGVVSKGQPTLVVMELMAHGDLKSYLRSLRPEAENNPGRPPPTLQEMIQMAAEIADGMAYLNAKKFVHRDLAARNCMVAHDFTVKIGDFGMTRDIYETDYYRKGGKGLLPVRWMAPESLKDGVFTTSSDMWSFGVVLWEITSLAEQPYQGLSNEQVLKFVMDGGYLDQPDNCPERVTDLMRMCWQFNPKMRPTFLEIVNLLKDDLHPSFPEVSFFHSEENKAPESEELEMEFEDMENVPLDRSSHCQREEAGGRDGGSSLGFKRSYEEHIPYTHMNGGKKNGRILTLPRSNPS

[35] = target: Epidermal growth factor receptor (Homo sapiens, UniProt P00533)
Epidermal growth factor receptor, sequence (P00533 whole entry): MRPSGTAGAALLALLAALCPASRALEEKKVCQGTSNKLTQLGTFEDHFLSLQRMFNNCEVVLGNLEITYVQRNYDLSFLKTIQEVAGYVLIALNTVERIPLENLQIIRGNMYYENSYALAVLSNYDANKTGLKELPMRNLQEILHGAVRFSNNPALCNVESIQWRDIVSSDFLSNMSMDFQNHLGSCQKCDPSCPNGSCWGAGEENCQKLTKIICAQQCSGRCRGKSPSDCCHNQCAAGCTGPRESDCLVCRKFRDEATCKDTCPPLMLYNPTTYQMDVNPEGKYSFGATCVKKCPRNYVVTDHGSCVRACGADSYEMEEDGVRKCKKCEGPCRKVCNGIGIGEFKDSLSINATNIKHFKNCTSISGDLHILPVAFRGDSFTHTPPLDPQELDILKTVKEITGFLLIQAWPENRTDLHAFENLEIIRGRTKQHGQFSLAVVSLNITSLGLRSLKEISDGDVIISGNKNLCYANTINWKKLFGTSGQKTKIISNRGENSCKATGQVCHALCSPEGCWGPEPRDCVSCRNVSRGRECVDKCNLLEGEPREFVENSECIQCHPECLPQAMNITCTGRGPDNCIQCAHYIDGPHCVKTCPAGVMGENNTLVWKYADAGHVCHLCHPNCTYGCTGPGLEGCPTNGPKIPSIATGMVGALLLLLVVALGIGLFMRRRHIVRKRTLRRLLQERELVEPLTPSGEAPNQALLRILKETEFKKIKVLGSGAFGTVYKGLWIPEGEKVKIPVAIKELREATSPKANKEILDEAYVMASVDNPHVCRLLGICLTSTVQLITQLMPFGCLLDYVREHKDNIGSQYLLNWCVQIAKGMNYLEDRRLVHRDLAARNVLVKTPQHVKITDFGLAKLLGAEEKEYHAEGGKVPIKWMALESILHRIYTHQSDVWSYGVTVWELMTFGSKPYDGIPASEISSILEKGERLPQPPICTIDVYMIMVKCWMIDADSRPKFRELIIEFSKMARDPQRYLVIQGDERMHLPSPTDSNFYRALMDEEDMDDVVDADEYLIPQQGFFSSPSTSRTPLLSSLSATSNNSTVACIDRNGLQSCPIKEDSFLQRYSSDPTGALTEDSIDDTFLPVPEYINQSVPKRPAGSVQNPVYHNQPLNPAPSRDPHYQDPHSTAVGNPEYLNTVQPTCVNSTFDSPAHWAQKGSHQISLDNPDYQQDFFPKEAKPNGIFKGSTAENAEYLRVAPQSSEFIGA
Description: Inhibition of recombinant EGFR1 (unknown origin)

[36] = target: Mast/stem cell growth factor receptor Kit (Homo sapiens, UniProt P10721); test: Inhibition of recombinant KIT (unknown origin)
[37] = tested on: BXPC-3; test: Antiproliferative activity against human BXPC-3 cells assessed as inhibition of cell growth incubated for 72 hrs by celltiter-glo assay; type: functional, cell-based; conditions: BXPC-3, 72 h
[38] = target: CDC7/DBF4 (Cell division cycle 7-related protein kinase/Activator of S phase kinase) (Homo sapiens, UniProt O00311); test: Inhibition of recombinant CDC7/DBF4 (unknown origin); type: protein-complex assay
CDC7/DBF4 (Cell division cycle 7-related protein kinase/Activator of S phase kinase), sequence (Q9UBU7 whole entry): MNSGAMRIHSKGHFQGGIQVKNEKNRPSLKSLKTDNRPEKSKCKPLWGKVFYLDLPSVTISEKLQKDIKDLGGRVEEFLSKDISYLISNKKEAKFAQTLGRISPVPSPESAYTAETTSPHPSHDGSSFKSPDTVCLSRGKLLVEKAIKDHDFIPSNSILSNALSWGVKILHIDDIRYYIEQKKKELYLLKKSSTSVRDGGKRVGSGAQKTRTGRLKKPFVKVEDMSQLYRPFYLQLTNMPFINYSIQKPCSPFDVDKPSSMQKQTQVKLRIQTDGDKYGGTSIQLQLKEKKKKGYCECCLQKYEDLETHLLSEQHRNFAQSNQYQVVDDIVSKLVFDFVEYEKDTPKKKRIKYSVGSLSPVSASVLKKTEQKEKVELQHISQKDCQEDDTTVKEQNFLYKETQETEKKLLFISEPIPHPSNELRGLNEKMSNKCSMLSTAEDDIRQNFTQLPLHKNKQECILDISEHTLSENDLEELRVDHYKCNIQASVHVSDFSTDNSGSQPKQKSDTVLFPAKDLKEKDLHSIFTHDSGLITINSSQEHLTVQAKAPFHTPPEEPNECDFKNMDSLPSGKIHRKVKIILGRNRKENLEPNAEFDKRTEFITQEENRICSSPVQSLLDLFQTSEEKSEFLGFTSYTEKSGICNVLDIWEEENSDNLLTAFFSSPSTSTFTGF
CDC7/DBF4 (Cell division cycle 7-related protein kinase/Activator of S phase kinase), sequence (O00311 whole entry): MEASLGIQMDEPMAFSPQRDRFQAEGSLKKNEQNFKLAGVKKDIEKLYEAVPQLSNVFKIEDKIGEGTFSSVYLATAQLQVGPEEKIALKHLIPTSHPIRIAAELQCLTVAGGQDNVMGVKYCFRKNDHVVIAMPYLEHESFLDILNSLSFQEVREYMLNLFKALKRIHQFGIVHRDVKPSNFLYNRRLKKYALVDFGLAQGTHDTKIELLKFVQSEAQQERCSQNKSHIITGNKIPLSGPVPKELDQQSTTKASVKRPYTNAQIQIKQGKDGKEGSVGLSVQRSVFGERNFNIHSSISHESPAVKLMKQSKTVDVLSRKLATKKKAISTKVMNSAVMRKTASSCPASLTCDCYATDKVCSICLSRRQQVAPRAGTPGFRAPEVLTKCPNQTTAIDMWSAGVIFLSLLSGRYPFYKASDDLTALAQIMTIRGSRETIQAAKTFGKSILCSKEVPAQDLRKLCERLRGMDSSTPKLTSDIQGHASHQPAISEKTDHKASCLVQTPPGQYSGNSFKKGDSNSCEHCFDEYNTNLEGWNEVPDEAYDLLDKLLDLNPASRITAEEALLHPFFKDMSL

[39] = tested on: Toledo; test: Antiproliferative activity against human Toledo cells assessed as inhibition of cell growth incubated for 72 hrs by celltiter-glo assay; type: functional, cell-based
[40] = tested on: SET-2; test: Antiproliferative activity against human SET2 cells assessed as inhibition of cell growth incubated for 72 hrs by celltiter-glo assay; type: functional, cell-based; conditions: SET-2, 72 h
[41] = Toxicity in Athymic nu-nu nude mouse xenografted with human A2780 cells assessed as body weight loss at 90 mg/kg, po administered once a day for 7 days; type: organism-based; conditions: in vivo, 168 h, time 7 day
[42] = Cmax in Athymic nu-nu mouse at 10 mg/kg, po measured upto 24 hrs by LC-MS/MS analysis; type: ADME, organism-based; conditions: in vivo
[43] = tested on: NCI-H226; test: Antiproliferative activity against human NCI-H226 cells assessed as inhibition of cell growth incubated for 72 hrs by celltiter-glo assay; type: functional, cell-based; conditions: NCI-H226, 72 h

IC50 [4]: > 10 µM | IC50 [6]: 10 µM | IC50 [9]: > 10 µM | IC50 [13]: 1.55 µM | IC50 [14]: > 10 µM | IC50 [15]: > 10 µM | IC50 [16]: 4.42 µM | IC50 [18]: 4.49 µM | IC50 [20]: > 10 µM | bioavailability [21]: 22.6% | IC50 [22]: > 10 µM | half-life [23]: 8.01 h | IC50 [24]: 2.59 µM | IC50 [25]: > 10 µM | IC50 [27]: > 10 µM | AUC at 24 h [28]: 22.4 µM·h | IC50 [29]: 1.86 µM | IC50 [30]: 3.07 µM | IC50 [33]: > 10 µM | IC50 [34]: > 10 µM | IC50 [35]: > 10 µM | IC50 [36]: > 10 µM | IC50 [37]: 2.18 µM | IC50 [38]: > 10 µM | Cmax [42]: 600 nM | IC50 [43]: 2.01 µM
SMILES: CCc1cccc(CC)c1NC(=O)c1nn(C)c2c1CCc1cnc(Nc3ccc(C(=O)NC4CCN(C)CC4)cc3OC(F)(F)F)nc1-2
Activity [1]: Active | IC50 [2]: 3.62 µM | IC50 [3]: 1.54 µM | Activity [5]: Active | IC50 [7]: 0.203 µM | IC50 [8]: 2.96 µM | IC50 [10]: 1.71 µM | IC50 [11]: 9.31 µM | IC50 [12]: 1.49 µM | Activity [17]: Active | IC50 [19]: 4.75 µM | IC50 [26]: 7.77 µM | IC50 [31]: 0.698 µM | IC50 [32]: 5.22 µM | IC50 [39]: 1.72 µM | IC50 [40]: 10 µM | Activity [41]: Non-Toxic
